Source: publication PMC7118210 (Frontiers in Pharmacology, 2020)
Read-outs that look alike come from different tables or passages of the source.

Experiment: Single ascending dose and food-effect pharmacokinetics of naringin tablets in healthy humans
Type: in vivo, human
Details: for Tmax / half-life / AUC(0-inf) / AUC(0-t) / Cmax / MRT last / MRT inf / effect of a high-fat diet on t1/2, Tmax, Cmax and AUC / CL: human; for Tmax / half-life / AUC(0-inf) / AUC(0-t) / Cmax / MRT last / MRT inf: plasma; for MRT last: read-out: MRT0-t; for MRT inf: read-out: MRT0-∞; for effect of a high-fat diet on t1/2, Tmax, Cmax and AUC: food-effect trial, naringin 160 mg p.o.
Excerpt: Participants were healthy males and females, 18 to 40 years old, ≥50 kg weight, 19 to 25 kg m^2 body mass index. The health condition of participants was considered good based on the screened medical history, physical examination, vital signs, electrocardiogram, and laboratory examination. […] Clinical laboratory test results (sodium, potassium, total protein, white blood and red blood cell counts, hematocrit, hemoglobin, platelet count, aspartate aminotransferase, alanine aminotransferase, gamma-glutamyl transferase, blood urea nitrogen, creatinine, total bilirubin, alkaline phosphatase, creatine kinase, lactate dehydrogenase, calcium, chloride, phosphorus, albumin, globulin, cholesterol, triglycerides, glucose, uric acid, and urinalysis) had to be within normal ranges, without other clinically significant abnormalities. During the study duration, participants were required to use barrier contraception with spermicide during sexual intercourse. During the trial, female participants were in the nonmenstrual, nonpregnant, and nonlactation periods, and they were nonsmokers. Participants were not planning a pregnancy within 6 months of the clinical trials, they communicated with the investigator, understood and complied with the study requirements, and signed informed consent.
Using the Statistical Analysis System (SAS) software (Version 9.4, SAS Institute Inc., Cary, NC, USA), subject randomization and blinding/masking were performed by statisticians from the Department of Health Statistics at the Second Military Medical University.
All blood samples were transferred into heparin-treated centrifuge tubes and centrifuged for 10 min at 4,000 rpm and 4°C. All human urine samples were mixed and transferred (4 ml) into storage tubes. All biological samples were stored at −80°C.
The optimal volume and activity in unit volume of enzyme solution [0.2 M acetic acid/water solution: 0.2 M ammonium acetate/water solution, 15:35 (v/v)] were determined through a pretest of the enzyme (rat plasma, 10 μl, 10 U μl^-1; dog plasma, 10 μl, 10 U μl^-1; human plasma, 20 μl, 20 U μl^-1; human urine, 10 μl, 10 U μl^-1). […] To each fecal sample, 9-fold methanol-normal saline (2:1, v/v) was added, mixed (18,000 rpm, 15 min) by vortexing and centrifuged (10 min, 9,000 rpm, 4°C). […] Then, all plasma, urine, and fecal samples were extracted with ethyl acetate (rat plasma, 800 μl; dog plasma, 1,000 μl; human plasma, 3,000 μl; human urine, 3,000 μl; human feces, 3,000 μl) for at least 3 min by vortexing, centrifuged for 10 min at 3,900 rpm and 4°C; supernatants were transferred into centrifuge tubes and dried with N2. The solid material was dissolved with acetonitrile-water (1:1, v/v) and injected into the ultra high-performance liquid chromatography coupled with triple quadrupole mass spectrometry (UHPLC/MS/MS) system as described below.
The analysis of nonclinical and clinical samples was performed with a UHPLC/MS/MS system that consisted of a Shimadzu Nexera X2 ultra high-performance liquid chromatography (UHPLC) (Shimadzu Corp., Kyoto, Japan) coupled with an AB Sciex API4000 triple-quadrupole mass spectrometry (MS/MS) system (AB Sciex, Foster City, CA, USA) equipped with an electrospray ionization source and controlled by Analyst (v. 1.6.2) software. […] The mobile phase consisted of 0.1% formic acid (v/v) in water (A) and 0.1% formic acid in acetonitrile (B) using a linear gradient of 90% A (0–0.5 min), 90 to 60% A (0.5–1.5 min), 60% to 40% A (1.5–3.5 min), 40% to 10% A (3.5–4.5 min), 10% A (4.5–5.5 min), 10% to 90% A (5.5–6.0 min), and 90% A (6.0–7.5 min) for plasma; and 80% A (0–0.2 min), 80 to 64% A (0.2–2.0 min), 64% to 63% A (2.0–4.4 min), 63% to 0% A (4.4–4.5 min), 0% A (4.5–5.5 min), 0% to 90% A (5.5–5.6 min), 90% A (5.6–5.9 min), 90% to 35% A (5.9–6.0 min), 35% A (6.0–6.2 min), 35 to 80% A (6.2–6.3 min), and 80% A (6.3–7.5 min) for urine and feces.

[1] = both sexes, oral, naringin in humans, clinical studies overall
[2] = both sexes, po, 40 mg, naringin 40 mg p.o. single dose
[3] = both sexes, po, 80 mg, naringin 80 mg p.o. single dose
[4] = both sexes, po, 160 mg, naringin 160 mg (high-fat diet) p.o. single dose
[5] = both sexes, po, 160 mg, naringin 160 mg p.o. single dose
[6] = both sexes, po, 320 mg, naringin 320 mg p.o. single dose
[7] = both sexes, po, 480 mg, naringin 480 mg p.o. single dose
[8] = female, po, 40 mg, naringin 40 mg p.o. single dose
[9] = female, po, 80 mg, naringin 80 mg p.o. single dose
[10] = female, po, 160 mg, naringin 160 mg p.o. single dose
[11] = female, po, 160 mg, naringin 160 mg p.o. single dose, high-fat diet group, female
[12] = male, po, 40 mg, naringin 40 mg p.o. single dose
[13] = male, po, 80 mg, naringin 80 mg p.o. single dose
[14] = male, po, 160 mg, naringin 160 mg p.o. single dose
[15] = male, po, 160 mg, naringin 160 mg p.o. single dose, high-fat diet group, male

C[C@@H]1O[C@@H](O[C@H]2[C@H](Oc3cc(O)c4c(c3)O[C@H](c3ccc(O)cc3)CC4=O)O[C@H](CO)[C@@H](O)[C@@H]2O)[C@H](O)[C@H](O)[C@H]1O [naringin, Naringin]
Tmax [1]: 2.09 ± 1.15 h | half-life [1]: 2.69 ± 1.77 h | AUC(0-inf) [2]: 0.00999 ± 0.00422 µg·h/mL | AUC(0-t) [2]: 0.00761 ± 0.0035 µg·h/mL | Cmax [2]: 2.24 ± 0.67 ng/mL | Tmax [2]: 1.97 ± 1.11 h | half-life [2]: 2.48 ± 1.64 h | MRT last [2]: 2.66 ± 0.443 h | MRT inf [2]: 4.9 ± 1.69 h | AUC(0-inf) [3]: 0.0122 ± 0.00319 µg·h/mL | AUC(0-t) [3]: 0.00927 ± 0.00337 µg·h/mL | Cmax [3]: 2.94 ± 1.17 ng/mL | Tmax [3]: 2.09 ± 1.39 h | half-life [3]: 1.9 ± 1.22 h | MRT last [3]: 2.8 ± 0.543 h | MRT inf [3]: 3.83 ± 1.69 h | AUC(0-inf) [4]: 0.0182 ± 0.00581 µg·h/mL | AUC(0-t) [4]: 0.0128 ± 0.00474 µg·h/mL | Cmax [4]: 3.04 ± 1.15 ng/mL | Tmax [4]: 2.66 ± 1.87 h | half-life [4]: 3.11 ± 1.95 h | MRT last [4]: 3.45 ± 1.22 h | MRT inf [4]: 6.19 ± 2.77 h | AUC(0-inf) [5]: 0.0224 ± 0.00936 µg·h/mL | AUC(0-t) [5]: 0.0157 ± 0.00751 µg·h/mL | Cmax [5]: 4.29 ± 2.63 ng/mL | Tmax [5]: 2.5 ± 1.41 h | half-life [5]: 3.64 ± 3.01 h | MRT last [5]: 3.3 ± 1.12 h | MRT inf [5]: 6.54 ± 4.41 h | AUC(0-inf) [6]: 0.0398 ± 0.0322 µg·h/mL | AUC(0-t) [6]: 0.0375 ± 0.0322 µg·h/mL | Cmax [6]: 10.9 ± 12.4 ng/mL | Tmax [6]: 1.66 ± 0.99 h | half-life [6]: 2.51 ± 1.58 h | MRT last [6]: 3.17 ± 0.677 h | MRT inf [6]: 4.01 ± 1.05 h | AUC(0-inf) [7]: 0.0212 ± 0.00795 µg·h/mL | AUC(0-t) [7]: 0.0194 ± 0.00786 µg·h/mL | Cmax [7]: 5.69 ± 2.8 ng/mL | Tmax [7]: 1.66 ± 0.834 h | half-life [7]: 2.01 ± 0.498 h | MRT last [7]: 3.08 ± 0.704 h | MRT inf [7]: 3.86 ± 0.779 h | AUC(0-inf) [8]: 0.00583 ± 0.000737 µg·h/mL | AUC(0-t) [8]: 0.00464 ± 0.00101 µg·h/mL | Cmax [8]: 1.92 ± 0.516 ng/mL | Tmax [8]: 2.67 ± 1.53 h | half-life [8]: 1.49 ± 0.849 h | AUC(0-inf) [9]: 0.0115 ± 0.00269 µg·h/mL | AUC(0-t) [9]: 0.0102 ± 0.00228 µg·h/mL | Cmax [9]: 3.3 ± 0.916 ng/mL | Tmax [9]: 1.44 ± 0.657 h | half-life [9]: 1.48 ± 0.448 h | AUC(0-inf) [10]: 0.0259 ± 0.00847 µg·h/mL | AUC(0-t) [10]: 0.0178 ± 0.00504 µg·h/mL | Cmax [10]: 3.44 ± 1.08 ng/mL | Tmax [10]: 3.25 ± 1.71 h | half-life [10]: 4.57 ± 3.65 h | AUC(0-inf) [11]: 0.0209 ± 0.00478 µg·h/mL | AUC(0-t) [11]: 0.0161 ± 0.00327 µg·h/mL | Cmax [11]: 3.78 ± 1.26 ng/mL | Tmax [11]: 2.88 ± 2.02 h | half-life [11]: 2.54 ± 1.96 h | effect of a high-fat diet on t1/2, Tmax, Cmax and AUC: insignificantly altered | AUC(0-inf) [12]: 0.0125 ± 0.00318 µg·h/mL | AUC(0-t) [12]: 0.00939 ± 0.00323 µg·h/mL | Cmax [12]: 2.43 ± 0.727 ng/mL | Tmax [12]: 1.55 ± 0.622 h | half-life [12]: 3.07 ± 1.78 h | AUC(0-inf) [13]: 0.0132 ± 0.00416 µg·h/mL | AUC(0-t) [13]: 0.00835 ± 0.00436 µg·h/mL | Cmax [13]: 2.58 ± 1.43 ng/mL | Tmax [13]: 2.75 ± 1.71 h | half-life [13]: 2.46 ± 1.83 h | AUC(0-inf) [14]: 0.0177 ± 0.00993 µg·h/mL | AUC(0-t) [14]: 0.0137 ± 0.00973 µg·h/mL | Cmax [14]: 5.14 ± 3.6 ng/mL | Tmax [14]: 1.75 ± 0.5 h | half-life [14]: 2.41 ± 1.79 h | AUC(0-inf) [15]: 0.0147 ± 0.00583 µg·h/mL | AUC(0-t) [15]: 0.00956 ± 0.00357 µg·h/mL | Cmax [15]: 2.3 ± 0.201 ng/mL | Tmax [15]: 2.44 ± 1.98 h | half-life [15]: 3.86 ± 2.02 h | CL (naringin 40 mg p.o. single dose): 67.0 ± 36.3 L/h/kg | CL (naringin 80 mg p.o. single dose): 103 ± 49.9 L/h/kg | CL (naringin 160 mg (high-fat diet) p.o. single dose): 172 ± 64.3 L/h/kg | CL (naringin 160 mg p.o. single dose): 144 ± 61.6 L/h/kg | CL (naringin 320 mg p.o. single dose): 202 ± 131 L/h/kg | CL (naringin 480 mg p.o. single dose): 477 ± 372 L/h/kg

O=C1C[C@@H](c2ccc(O)cc2)Oc2cc(O)cc(O)c21 [naringenin, Naringenin]
half-life (both sexes, oral, naringenin in humans, studies overall): 2.6 ± 1.89 h | effect of a high-fat diet on t1/2, Tmax, Cmax and AUC: insignificantly altered | lag-time in plasma (human plasma, after p.o. naringin): 5.74 ± 2.38 h | time for concentrations to increase to Cmax after the lag-time (humans, after p.o. naringin): about 3.62 ± 3.19 h
